“And” between values parts separate entries of the source, which are not always exact repeats. Equal entries are not always repeated. Where two headings read alike, the source gives them in different places.
Key:
human liver FBPase = human liver FBPase (Homo sapiens (Human), UniProt P09467); experiment: FBPase activity, enzyme-coupled spectrophotometric assay; assay type: biochemical; conditions: for IC50: human liver FBPase; for inhibition of human liver FBPase relative to AMP: compared with AMP, the natural allosteric inhibitor
Sequence of human liver FBPase (P09467 2-338): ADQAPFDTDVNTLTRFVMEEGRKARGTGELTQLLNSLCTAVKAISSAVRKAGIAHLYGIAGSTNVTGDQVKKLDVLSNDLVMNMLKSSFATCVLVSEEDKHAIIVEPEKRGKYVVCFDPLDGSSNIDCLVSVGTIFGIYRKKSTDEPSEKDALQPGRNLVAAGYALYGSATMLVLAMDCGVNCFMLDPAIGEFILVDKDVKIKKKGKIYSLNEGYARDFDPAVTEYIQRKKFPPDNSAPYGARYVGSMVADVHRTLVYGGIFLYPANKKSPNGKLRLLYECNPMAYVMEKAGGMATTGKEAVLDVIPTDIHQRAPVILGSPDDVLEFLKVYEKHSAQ
Procedure: Compounds 3 and 4 (see Scheme 1) were synthesized and tested to determine if they could inhibit either pig kidney or human liver FBPase. The test were performed using an enzyme-coupled assay^17 with AMP as a control.
(§1) FBPase activity was measured spectrophotometrically by employing the coupling enzymes phosphoglucose isomerase and glucose-6-phosphate dehydrogenase.^17 The reduction of NADP+ to NADPH was monitored directly at 340 nm. Specifically, buffer (0.2 M Tris, 4 mM MgCl2, 4 mM (NH4)2SO4, 0.1 EDTA, pH 7.5), 0.2 mM of NADP+, 1.4 units of phosphoglucose isomerase and 0.5 units of glucose-6-phosphate dehydrogenase, 0-300M of inhibitor and 9 ng of FBPase, were mixed in a cuvette and equilibrated at 30° C. 70M of FBP was then added to initiate the reaction. Absdata were collected as a function of time using a JASCO V-630 spectrophotometer.
(§2) After a lag phase, due to coupling, a straight line was fitted to the progress curve and the slope value was recorded asAbs340 per min. The amount of NADPH produced per minute was calculated using the 340 nm millimolar extinction coefficient of 6.22. At each inhibitor concentration, reactions were performed in duplicate. Inhibition curves were obtained for each compound by plotting the relative activity versus inhibitor concentration.

pig kidney FBPase = pig kidney FBPase (Sus scrofa, UniProt P00636); experiment: as above; assay type: biochemical; conditions: for IC50: pig kidney FBPase; for inhibition of pig kidney FBPase relative to AMP: compared with AMP, the natural allosteric inhibitor
Sequence of pig kidney FBPase (P00636 2-338 limits assumed): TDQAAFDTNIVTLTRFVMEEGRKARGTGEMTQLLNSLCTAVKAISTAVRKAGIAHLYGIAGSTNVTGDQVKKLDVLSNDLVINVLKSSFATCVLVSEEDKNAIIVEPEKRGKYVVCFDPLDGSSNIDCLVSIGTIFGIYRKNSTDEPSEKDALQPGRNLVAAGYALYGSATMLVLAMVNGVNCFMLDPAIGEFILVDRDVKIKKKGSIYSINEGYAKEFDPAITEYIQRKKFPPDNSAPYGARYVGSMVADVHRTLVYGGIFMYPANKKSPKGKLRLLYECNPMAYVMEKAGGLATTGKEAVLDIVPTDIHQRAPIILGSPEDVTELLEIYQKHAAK
Procedure: The test were performed using an enzyme-coupled assay^17 with AMP as a control.
as §1, §2

plasma glucose levels = conditions: compared with Metformin (250 mg/kg); cited from earlier work
[1] = test system: allosteric site of FBPase; experiment: TNP-AMP fluorescence competition experiment; assay type: binding; conditions: TNP-AMP at 0.5 times its Kd
Procedure: Fluorescence data were collected using a JASCO FP-6300 spectro-fluorometer. Excitation and emission wavelengths of 410 and 535 nm respectively were used for TNPAMP (Molecular Probes). 0.15 mg of the respective FBPases, 0.08 mM MgCl and 20M fructose 1, 6-2 bisphosphate in 50 mM Tris-acetate buffer, pH 7.5, was added to a 2 mL cuvette and stirred. 3.5 M of TNP-AMP was added to the cuvette and the emission data was obtained Microliter volumes of 3 were subsequently added to the cuvette and resultant emission data was obtained after each addition. The final concentration of 3 in the enzyme solution was 6M.

[2] = Solubility (remark in competition experiment); assay type: physicochemical
[3] = read-out: FBPase, IC50 Human Liver

Row | Structure (SMILES) | IC50 (human liver FBPase; [3]) | IC50 (pig kidney FBPase) | lowering of plasma glucose levels (plasma glucose levels) | IC50 (human liver FBPase; read-out: IC50 human liver FBPase) | TNP-AMP fluorescence on addition of increasing concentrations of compound [1] | solubility [2] | inhibition of human liver FBPase relative to AMP (human liver FBPase) | inhibition of pig kidney FBPase relative to AMP (pig kidney FBPase)
1 | Nc1ncnc2c1ncn2[C@@H]1O[C@H](COP(=O)(O)O)[C@@H](O)[C@H]1O [AMP, reference compound] | 9.7 µM and 9.8 µM | 1.3 µM |  |  |  |  |  | 
2 | C=C(C)C(O)Cc1c(O)c(C(=O)C(C)CC)c(O)c2c1oc1c(C(=O)C(C)CC)c(O)c(CC=C(C)C)c(O)c12 (stereo not shown) [Compound 1, achyrofuran] |  |  | better than that of Metformin |  |  |  |  | 
3 | CC(=O)C1=C(O)C=C2Oc3c(C(C)=O)c(O)c(C)c(O)c3[C@@]2(C)C1=O [Compound 2, (+)-usnic acid, reference compound] |  |  |  | 370 µM |  |  |  | 
4 | CC(C)CC(=O)c1c(O)cc2oc3c(C(=O)CC(C)C)c(O)cc(O)c3c2c1O [Compound 3, 1,1′-(1,3,7,9-tetrahydroxydibenzofuran-2,6-diyl)bis(3-methylbutan-1-one)] | 8.1 µM | 1.5 ± 0.1 µM |  |  | substantial diminution of the TNP-AMP fluorescence | relatively low solubility | comparable to that of AMP | comparable to that of AMP
5 | CCC(C)C(=O)c1c(O)cc2oc3c(C(=O)C(C)CC)c(O)cc(O)c3c2c1O (stereo not shown) [Compound 4, 1,1′-(1,3,7,9-tetrahydroxydibenzofuran-2,6-diyl)bis(2-methylbutan-1-one)] | 6 µM | 5 µM |  |  | substantial diminution of the TNP-AMP fluorescence | relatively low solubility | comparable to that of AMP | comparable to that of AMP

Source: patent US9273021B2, “Dibenzofuran derivatives as inhibitors of fructose 1,6-bisphosphatase and methods of use thereof” (TRUSTEES OF BOSTON COLLEGE, priority 2009, dated 2016)
